Measurements as given in PubChem BioAssay (NCI).
Where “and” joins values, the source holds several entries; their conditions need not be identical. Equal entries are not always repeated.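 Protocol summary: plate cells (96-well), add compound at 5 concentrations, incubate 48 h, interpolate endpoints linearly. GI50: concentration for 50% inhibition of growth. At the TGI there is no net growth.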

Legend:
Assay in all cases: NCI anticancer screen, dose series, 48 h
[1] = test system: OVCAR-3 ovarian
[2] = test system: M14 melanoma
[3] = test system: OVCAR-5 ovarian
[4] = test system: SR leukemia
[5] = test system: EKVX NSCLC
[6] = test system: PC-3 prostate
[7] = test system: RXF 393 renal
[8] = test system: TK-10 renal
[9] = test system: SK-MEL-2 melanoma
[10] = test system: HL-60(TB) leukemia

Structure (SMILES)	TGI [1]	TGI [2]	TGI [3]	TGI [4]	TGI [5]	TGI [6]	TGI [7]	TGI [8]	TGI [9]	TGI [10]	GI50 [1]	GI50 [2]	GI50 [3]	GI50 [4]	GI50 [5]	GI50 [6]	GI50 [7]	GI50 [8]	GI50 [9]	GI50 [10]
C=C1C(=O)OC2/C=C(/C)C(OC(C)=O)CC(O)/C(C)=C\C(OC(=O)/C(C)=C\C)C12 (stereo not drawn)	> 100 µM	> 100 µM	> 100 µM	> 100 µM	> 100 µM	> 100 µM	> 100 µM	> 100 µM	> 100 µM	60.7 µM	–	–	–	–	–	–	–	–	–	–
CC1(C)C2C=CC1(C)C1(CC2)OCCO1 (stereo not drawn)	> 100 µM	> 100 µM	> 100 µM	> 100 µM	–	> 100 µM	> 100 µM	> 100 µM	> 100 µM	> 100 µM	–	–	–	–	–	–	–	–	–	–
COc1ccc(OC)c(-c2c(C#N)c(N)nc(N3CCOCC3)c2C#N)c1	> 100 µM	> 100 µM	> 100 µM	> 100 µM	> 100 µM	> 100 µM	> 100 µM	> 100 µM	> 100 µM	> 100 µM	39.3 µM	> 100 µM	> 100 µM	36.3 µM	> 100 µM	95.4 µM	61.4 µM	45 µM	> 100 µM	> 100 µM
CCOc1ccccc1N=Nc1c(C)[nH]n(-c2nc(-c3ccccc3)cs2)c1=O	> 100 µM	> 100 µM	> 100 µM	> 100 µM	> 100 µM	> 100 µM	38.4 µM	> 94.2 µM	> 100 µM	> 100 µM	57.7 µM	> 100 µM	> 100 µM	> 100 µM	32.6 µM	34.7 µM	16.4 µM	43.4 µM	27.3 µM	> 100 µM
C[CH2][Sn]([CH2]C)([O]C(=O)C(OC(C)=O)c1ccccc1)[O]C(=O)C(OC(C)=O)c1ccccc1 (stereo not drawn)	> 100 µM	> 100 µM	> 100 µM	> 100 µM	> 100 µM	> 100 µM	33.1 µM	33 µM	> 100 µM	29.8 µM	> 100 µM	44.5 µM	41.2 µM	24.3 µM	> 100 µM	> 100 µM	18.6 µM	18.8 µM	54.6 µM	10 µM
O=C(NC[C@H](O)CO)c1ccncc1Nc1ccc(I)cc1F	> 100 µM	> 3.52 µM and 10.8 µM	> 100 µM	> 100 µM	> 100 µM	> 100 µM	> 10 µM and 29.1 µM	> 100 µM	0.0923 µM and 0.0599 µM	> 54.2 µM	> 10 µM and 20.1 µM	0.0031 µM and < 0.01 µM	0.0104 µM and 0.0151 µM	> 10 µM and 52.4 µM	0.194 µM and 0.313 µM	> 10 µM and 61 µM	0.678 µM and 1.6 µM	–	0.00484 µM and < 0.01 µM	0.00228 µM and < 0.01 µM
C=C(CO[Si](C)(C)C(C)(C)C)C(C)=O	38.1 µM	27.5 µM	86.2 µM	> 31.6 µM	> 100 µM	98.5 µM	29 µM	> 100 µM	54.7 µM	> 100 µM	–	–	–	–	–	–	–	–	–	–
